Experimental data taken from US11964984B2, “TXNIP-TRX complex inhibitors and methods of using the same” (CITY OF HOPE, priority 2020, dated 2024).

Experiments:
TXNIP mRNA = TXNIP mRNA expression in THP1 cells under 25 mM glucose (RT-PCR); assay type: cell-based, human; details: for TXNIP mRNA expression: concentration range
Experimental: FIGS. 2A-2B. FIG. 2A: C30 and C38 inhibited TXNIP mRNA expression in THP1 cells. THP1 cells were cultured under 25 mM glucose with the indicated concentrations of compounds for 72 hours. Cells were then collected for total RNA preparation. RT-PCR was performed, and data shown are the mean±SEM from triplicates. Statistical analysis was performed using one-way ANOVA, *p<0.0001. FIG. 2B: C30 and C38 inhibited TNF-α mRNA expression in THP1 cells. THP1 cells were cultured under 25 mM glucose with various concentrations of compounds as indicated for 72 hours and collected for total RNA preparation. RT-PCR was performed, and data shown are the mean±SEM from triplicates. Statistical analysis was performed using one-way ANOVA: *<0.02; **<0.0001.
FIG. 6. C38 analogues effects on TXNIP mRNA expression in THP1 cells. THP1 cells were cultured under 25 mM glucose with 2.5 uM of compounds for 72 h. Total RNA was collected. RT-PCR was performed in triplicate and data shown are the mean±SEM. Statistical analysis was performed using one-way ANOVA: *p<0.0001.
FIG. 7. C38 and analogue E2 effects on TXNIP mRNA levels in THP cells. THP1 cells were cultured under 25 mM glucose with several concentration of C38 and E2 as indicated for 72 hours. Total RNA was prepared. RT-PCR was performed in triplicate and data shown are the mean±SEM. Statistical analysis was performed for each column vs. without compound control using one-way ANOVA: *p<0.0001.
C30 and C38 inhibited TXNIP mRNA expression in THP1 cells.
Discovery of lead compound analogues. A search of chemical libraries was performed in the interest of identifying possible lead compound analogues. Analogues to C38 were identified. To determine the properties of the analogues, we treated THP1 cells with the E batch compounds for three days, prepared RNA and measured TXNIP mRNA levels.
RNA extraction and quantitative RT-PCR. RNA was extracted using the Direct-zol™ RNA MiniPrep Plus (Zymo Research). Reverse transcription of RNA samples into cDNA was performed using the GeneAmp RNA PCR Kit (Applied Biosystems), dNTP (from Roche Applied Science), Rnase inhibitor, MULV Reverse Transcriptase and Random hexamers reagent (all from Invitrogen). Diluted cDNA was quantified using real-time PCR performed with Power SYBR Green qPCR MasterMix (Applied Biosystem) and 7500 real-time PCR system (Applied Biosystems). The HPRT1 gene was used as an internal control.

TXNIP = biological target: T1, TXNIP (Homo sapiens, UniProt Q9H3M7); assay: Drug affinity responsive target stability (DARTS) assay, THP1 cell extracts; assay type: binding; details: THP-1 cell extracts, protease, aliquots at 7 minutes
T1 construct: THP1 cells were lysed with extract buffer; endogenous in cells; host or cells: THP1 cells cultured in RPMI 1640 under 25 mM glucose for 72 hours; cell extracts
T1 sequence (Q9H3M7 1-391): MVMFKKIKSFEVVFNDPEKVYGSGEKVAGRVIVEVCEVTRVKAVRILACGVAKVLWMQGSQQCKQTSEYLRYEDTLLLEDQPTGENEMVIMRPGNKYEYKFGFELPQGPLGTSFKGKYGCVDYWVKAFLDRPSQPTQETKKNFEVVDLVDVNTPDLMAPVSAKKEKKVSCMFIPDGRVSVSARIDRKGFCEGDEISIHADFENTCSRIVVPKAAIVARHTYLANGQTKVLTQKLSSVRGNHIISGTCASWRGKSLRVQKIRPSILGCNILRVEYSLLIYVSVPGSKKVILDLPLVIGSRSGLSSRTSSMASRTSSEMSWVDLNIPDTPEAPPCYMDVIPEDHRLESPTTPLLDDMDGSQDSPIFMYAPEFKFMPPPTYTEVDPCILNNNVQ
Experimental: FIG. 9. Treatment with C30 and C38 protects TXNIP from proteolysis in a DARTS assay. THP1 cell were cultured in RPMI 1640 medium under 25 mM glucose for 72 hours. Cell extracts were prepared. C30 and C38 were added at the indicated concentrations and protease was added except control lanes. Aliquots were withdrawn at 7 minutes and loaded on 10% SDS gels. Control: without protease.
Experimental testing of small molecules: We developed several different bench-based assays to perform rigorous and reproducible tests for the predicted hit molecules. These assays include testing direct binding to TXNIP as well as functional assays including under diabetic high glucose conditions. The assays are: (1) drug affinity responsive target stability test that tests the direct binding of the compounds. In this assay, when a compound binds to its target molecule, it can reduce the rate of its proteolytic digestion. (2) This assay looks for compounds that can interfere with the interaction between TXNIP and TRX in THP-1 monocytes treated with high glucose. TXNIP is highly expressed in cells treated with high glucose, and therefore would have high concentration of TXNIP/TRX complexes in the cell extract. Co-immunoprecipitation was done in these extracts through adding TRX antibody, and then the effects of compounds added were tested. […]

| Structure (SMILES) | concentration at which inhibition of TXNIP mRNA is still effective (TXNIP mRNA; 72 hours) | TXNIP mRNA expression (TXNIP mRNA; 72 hours) | concentration from which TXNIP is protected from proteolysis (TXNIP) | TXNIP mRNA expression (C38 analogues screen) (TXNIP mRNA; 2.5 uM compound, 72 h) |
| --- | --- | --- | --- | --- |
| COc1cc(N2CC[C@@H](c3ccc4ccccc4c3)[C@H](O)C2)nc(N)n1 [Compound C30] | 0.15 µM | inhibit TXNIP expression in a dose-dependent manner | ~0.5 µM | – |
| c1ccc(CCNc2ncnc3c2oc2ccccc23)cc1 [Compound C38] | – | inhibit TXNIP expression in a dose-dependent manner | ~0.5 µM | strongly inhibited TXNIP mRNA expression |
